Laboratory results published in ChEMBL document CHEMBL1201862, “PubChem BioAssay data set” (2004).
Calls of active or inactive are those of the source.

Experiments:
[1] = biological target: G-protein coupled receptor 55 (Homo sapiens, UniProt Q9Y2T6); test: GPR55 agonists via beta-arrestin recruitment, primary screen, imaging, U2OS cells, beta-arrestin-GFP redistribution (AID 1961); assay type: functional
[2] = biological target: T1, Heat shock factor protein 1 (Mus musculus, UniProt P38532); test: inhibition of MG132-induced HSE-luciferase signal, confirmation, cell-based, NIH3T3, luminescence, dose retest (AID 2382); assay type: functional;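 also: NIH3T3 fibroblasts with HSF1-driven luciferase reporter stressed by proteasome inhibitor MG132; luminescence from HSF1-driven luciferase expression after 8 hours of MG132 stress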
T1 sequence (P38532 whole entry): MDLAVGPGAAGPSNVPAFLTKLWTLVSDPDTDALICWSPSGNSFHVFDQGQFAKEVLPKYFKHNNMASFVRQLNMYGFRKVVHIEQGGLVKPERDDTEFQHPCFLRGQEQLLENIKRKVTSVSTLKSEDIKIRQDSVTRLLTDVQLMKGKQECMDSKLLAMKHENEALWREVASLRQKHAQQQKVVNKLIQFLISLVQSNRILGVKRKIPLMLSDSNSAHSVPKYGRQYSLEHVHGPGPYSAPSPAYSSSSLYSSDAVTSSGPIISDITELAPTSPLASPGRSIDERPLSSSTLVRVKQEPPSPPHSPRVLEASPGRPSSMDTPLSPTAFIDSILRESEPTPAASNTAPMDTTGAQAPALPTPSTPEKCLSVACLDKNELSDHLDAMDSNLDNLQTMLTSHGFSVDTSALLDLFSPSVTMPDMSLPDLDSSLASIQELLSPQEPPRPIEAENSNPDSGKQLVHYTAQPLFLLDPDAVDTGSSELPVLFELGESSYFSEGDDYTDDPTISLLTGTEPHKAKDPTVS

[3] = Fluorescence-based cell-based high throughput dose response assay for inhibitors of the interaction of nucleotide-binding oligomerization domain containing 2 (NOD2) and the receptor-interacting serine-threonine kinase 2 (RIPK2).; assay type: functional; settings: Homo sapiens
[4] = biological target: Histone-lysine N-methyltransferase NSD2 (Homo sapiens, UniProt O96028); assay type: biochemical
[5] = biological target: Neuropeptide Y receptor type 1 (Homo sapiens, UniProt P25929); assay type: functional;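 also: HEK293 cells with a CNG channel challenged with NPY then isoproterenol; potency as antagonist that reverses NPY suppression of cAMP signal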
[6] = biological target: Peroxisome proliferator-activated receptor gamma/Nuclear receptor coactivator 3 (Homo sapiens, UniProt P37231); test: TR-FRET dose response biochemical High Throughput Screening assay for agonists of the steroid receptor coactivator 3 (SRC-3) recruitment by the peroxisome proliferator-activated receptor gamma (PPAR gamma): non-selective agonists. [Related pubchem assays: 1301 (Confirmation screen.), 1048 (Primary screen.)]; assay type: functional
[7] = biological target: Peroxisome proliferator-activated receptor gamma/Nuclear receptor coactivator 2 (Homo sapiens, UniProt P37231); test: TR-FRET dose response biochemical High Throughput Screening assay for agonists of the steroid receptor coactivator 2 (SRC-2) recruitment by the peroxisome proliferator-activated receptor gamma (PPAR gamma): non-selective agonists. [Related pubchem assays: 1297, 1032 ]; assay type: functional
ORF 73 = ORF 73 (Human herpesvirus 8, UniProt O40947); test: inhibitors of C-LANA binding to LBS DNA, dose response, biochemical, fluorescence polarization, cherry-picked samples (AID 504725); parameters: species or system Human gammaherpesvirus 8;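 also: fluorescence polarization of a labeled DNA duplex reporting LANA DNA binding; potency is for inhibitors that block LANA binding to the DNA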
[8] = THP-1 cell cytotoxicity, dose response, cytotoxicity control for Vif-APOBEC3G degradation inhibitor project, THP-1 cells (AID 1117359); assay type: functional; settings: Human immunodeficiency virus 1, THP-1
Fatty acid synthase = Fatty acid synthase (Homo sapiens, UniProt P49327); test: FAS thioesterase domain inhibitors, dose response, biochemical, kinetic fluorescence intensity (AID 624326); assay type: functional;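 also: rate of fluorescence rise from hydrolysis of a fluorogenic O-methyl fluorescein ester substrate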
[9] = biological target: T2, Heat shock protein HSP 90-alpha (Homo sapiens, UniProt P07900); test: Luminescence-based dose response biochemical high throughput screening assay for inhibitors of the Heat Shock Protein 90 (HSP90). [Related pubchem assays: 1831 (Summary AID.), 1846 (Confirmation screen.), 1789 (Primary screen.)]
[10] = biological target: T2, Heat shock protein HSP 90-alpha; assay type: functional, organism-based
HEK293 [11] = test: SAR Analysis of small molecule inhibitors of T-cell specific antigen receptor-induced NF-kB activation in a HEK-293T cell line using a luminescence assay. [Related pubchem assays (depositor defined):AID435003, AID435012, AID489026]; assay type: functional, cell-based; settings: Homo sapiens
[12] = biological target: ATP-dependent molecular chaperone HSP82 (Candida albicans (strain WO-1) (Yeast), UniProt C4YTQ8); test: loss of DOC-induced GRE-beta-galactosidase reporter signal, dose response, Hsp90 inhibitor project, S. cerevisiae, luminescence (AID 2400); assay type: functional, cell-based;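 also: beta-galactosidase luminescence from glucocorticoid response element reporter as proxy for Hsp90 function; inhibitor potency where signal loss means Hsp90 inhibition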
Jurkat = test: SAR Analysis of small molecule inhibitors of T-cell specific antigen receptor-induced NF-kB activation in a Jurkat cell line using a luminescence assay. [Related pubchem assays (depositor defined):AID435003, AID435012, AID465]; assay type: functional, cell-based; settings: Homo sapiens
HEK293 [13] = test: cytotoxicity in HEK293T NF-kB-Luc cells, SAR follow-up, cytotoxicity control for NF-kB activator project, cell-based, resazurin fluorescence (AID 493251); assay type: functional
[14] = biological target: T3, Serine/threonine-protein phosphatase (Candida dubliniensis (strain CD36 / CBS 7987 / NCPF 3949 / NRRLY-17841) (Yeast), UniProt B9W6M3); test: calcineurin pathway inhibitors in yeast reporter, dose response, S. cerevisiae, CDRE-lacZ, luminescence, secondary (AID 2388); assay type: functional, cell-based;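 also: yeast reporter cells carrying a calcineurin-responsive lacZ construct stimulated with calcium chloride; luminescent beta-galactosidase reporter signal in whole cells rather than isolated phosphatase activity; potency for inhibition where a drop in reporter signal means calcineurin blockade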
T3 sequence (B9W6M3 whole entry): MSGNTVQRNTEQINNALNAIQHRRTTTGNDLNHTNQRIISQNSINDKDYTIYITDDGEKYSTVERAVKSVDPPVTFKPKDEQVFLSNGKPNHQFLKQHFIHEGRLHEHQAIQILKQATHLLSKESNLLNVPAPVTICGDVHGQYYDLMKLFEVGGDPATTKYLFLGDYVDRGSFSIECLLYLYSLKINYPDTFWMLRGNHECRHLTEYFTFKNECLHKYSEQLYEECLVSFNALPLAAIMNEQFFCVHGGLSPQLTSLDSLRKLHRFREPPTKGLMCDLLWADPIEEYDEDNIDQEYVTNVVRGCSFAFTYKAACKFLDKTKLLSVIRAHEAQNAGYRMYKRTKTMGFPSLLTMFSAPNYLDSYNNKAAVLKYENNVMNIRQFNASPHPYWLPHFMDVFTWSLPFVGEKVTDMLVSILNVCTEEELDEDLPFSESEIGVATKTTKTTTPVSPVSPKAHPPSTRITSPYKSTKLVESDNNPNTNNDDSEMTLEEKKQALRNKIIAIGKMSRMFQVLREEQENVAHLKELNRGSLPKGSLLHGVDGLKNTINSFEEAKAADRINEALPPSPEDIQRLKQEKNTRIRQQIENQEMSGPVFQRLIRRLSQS

[15] = NIH-3T3 fibroblast cytotoxicity, dose response, cytotoxicity control, cell-based, fluorescence, Alamar Blue, secondary assay (AID 2327); assay type: functional;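 also: NIH-3T3 mouse fibroblasts cultured with fluconazole at 8 µg/mL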
[16] = insulin promoter down-regulators in MIN6 cells, imaging, high-content screening, mouse beta cells (AID 1628); assay type: functional
[17] = C. albicans growth with fluconazole, confirmation, fluorescence, retest (AID 2467); assay type: functional, cell-based
cells [18] = assay type: functional, cell-based
cells [19] = assay type: functional, cell-based; remark: listed apart in the source

Chain of G-protein coupled receptor 55 (Q9Y2T6 whole entry): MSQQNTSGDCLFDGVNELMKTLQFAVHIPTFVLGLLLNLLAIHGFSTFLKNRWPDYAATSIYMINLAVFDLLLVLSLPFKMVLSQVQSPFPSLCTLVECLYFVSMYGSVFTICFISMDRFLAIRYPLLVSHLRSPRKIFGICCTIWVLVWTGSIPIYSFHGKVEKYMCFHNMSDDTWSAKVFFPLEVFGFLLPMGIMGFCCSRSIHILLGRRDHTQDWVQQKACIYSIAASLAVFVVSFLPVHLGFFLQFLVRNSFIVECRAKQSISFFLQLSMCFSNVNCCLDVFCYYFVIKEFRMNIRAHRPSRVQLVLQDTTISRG
Chain of ORF 73 (O40947 whole entry): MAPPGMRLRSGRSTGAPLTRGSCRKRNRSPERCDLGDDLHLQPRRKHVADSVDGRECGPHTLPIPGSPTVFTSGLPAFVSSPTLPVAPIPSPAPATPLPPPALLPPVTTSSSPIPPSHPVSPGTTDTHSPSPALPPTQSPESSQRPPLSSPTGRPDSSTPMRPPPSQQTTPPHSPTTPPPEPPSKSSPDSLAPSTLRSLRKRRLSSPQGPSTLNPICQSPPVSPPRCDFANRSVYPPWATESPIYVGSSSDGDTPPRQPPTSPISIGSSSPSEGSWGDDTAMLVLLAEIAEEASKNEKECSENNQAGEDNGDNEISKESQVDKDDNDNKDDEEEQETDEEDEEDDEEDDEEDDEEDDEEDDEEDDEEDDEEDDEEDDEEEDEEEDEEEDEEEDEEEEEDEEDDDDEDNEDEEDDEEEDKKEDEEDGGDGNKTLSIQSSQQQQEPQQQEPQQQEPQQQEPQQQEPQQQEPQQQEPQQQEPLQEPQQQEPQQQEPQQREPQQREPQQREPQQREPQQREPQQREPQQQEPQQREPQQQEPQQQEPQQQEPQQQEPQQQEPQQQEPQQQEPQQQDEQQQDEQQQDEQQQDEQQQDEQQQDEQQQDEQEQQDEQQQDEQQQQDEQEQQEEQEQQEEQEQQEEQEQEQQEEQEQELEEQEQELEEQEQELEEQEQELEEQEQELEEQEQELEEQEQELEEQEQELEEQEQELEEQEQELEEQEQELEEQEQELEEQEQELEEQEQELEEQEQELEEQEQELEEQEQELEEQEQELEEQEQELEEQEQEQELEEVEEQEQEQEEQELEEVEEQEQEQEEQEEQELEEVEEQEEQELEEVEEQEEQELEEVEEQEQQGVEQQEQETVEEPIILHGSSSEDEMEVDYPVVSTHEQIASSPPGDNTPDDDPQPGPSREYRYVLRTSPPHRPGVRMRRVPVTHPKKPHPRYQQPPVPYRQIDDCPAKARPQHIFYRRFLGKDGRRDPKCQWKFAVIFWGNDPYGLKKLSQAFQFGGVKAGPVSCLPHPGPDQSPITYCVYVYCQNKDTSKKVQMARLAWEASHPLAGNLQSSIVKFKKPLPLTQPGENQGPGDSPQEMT
Chain of Neuropeptide Y receptor type 1 (P25929 whole entry): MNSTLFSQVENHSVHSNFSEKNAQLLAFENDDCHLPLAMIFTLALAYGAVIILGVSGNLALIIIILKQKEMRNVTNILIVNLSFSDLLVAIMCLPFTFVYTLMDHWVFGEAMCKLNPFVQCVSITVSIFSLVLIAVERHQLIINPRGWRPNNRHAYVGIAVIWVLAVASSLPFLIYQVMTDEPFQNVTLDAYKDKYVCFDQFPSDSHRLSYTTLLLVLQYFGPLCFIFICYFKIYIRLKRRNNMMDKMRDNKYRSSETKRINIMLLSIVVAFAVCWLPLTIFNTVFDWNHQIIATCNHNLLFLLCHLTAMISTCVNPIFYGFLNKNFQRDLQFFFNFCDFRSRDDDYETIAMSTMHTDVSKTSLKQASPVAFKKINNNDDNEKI
Chain of ATP-dependent molecular chaperone HSP82 (C4YTQ8 whole entry): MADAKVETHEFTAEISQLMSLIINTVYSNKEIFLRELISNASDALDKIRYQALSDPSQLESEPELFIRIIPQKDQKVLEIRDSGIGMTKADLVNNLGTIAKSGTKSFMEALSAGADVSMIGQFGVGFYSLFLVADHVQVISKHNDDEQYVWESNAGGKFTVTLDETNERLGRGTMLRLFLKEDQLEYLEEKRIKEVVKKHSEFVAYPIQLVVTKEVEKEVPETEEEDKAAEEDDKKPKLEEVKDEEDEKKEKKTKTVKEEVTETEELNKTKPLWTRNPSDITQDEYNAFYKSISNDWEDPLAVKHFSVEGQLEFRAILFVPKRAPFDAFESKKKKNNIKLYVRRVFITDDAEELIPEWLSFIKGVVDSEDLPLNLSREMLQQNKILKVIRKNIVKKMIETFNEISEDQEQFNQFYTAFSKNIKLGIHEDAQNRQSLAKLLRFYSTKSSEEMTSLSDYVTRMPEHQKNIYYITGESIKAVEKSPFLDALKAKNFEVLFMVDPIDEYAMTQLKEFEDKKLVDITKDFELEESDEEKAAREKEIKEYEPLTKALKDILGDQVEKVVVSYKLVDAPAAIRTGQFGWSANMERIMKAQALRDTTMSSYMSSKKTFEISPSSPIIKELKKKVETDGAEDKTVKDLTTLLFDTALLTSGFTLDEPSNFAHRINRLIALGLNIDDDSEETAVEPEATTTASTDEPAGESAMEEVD
Chain of Fatty acid synthase (P49327 whole entry, the tested form may be a part): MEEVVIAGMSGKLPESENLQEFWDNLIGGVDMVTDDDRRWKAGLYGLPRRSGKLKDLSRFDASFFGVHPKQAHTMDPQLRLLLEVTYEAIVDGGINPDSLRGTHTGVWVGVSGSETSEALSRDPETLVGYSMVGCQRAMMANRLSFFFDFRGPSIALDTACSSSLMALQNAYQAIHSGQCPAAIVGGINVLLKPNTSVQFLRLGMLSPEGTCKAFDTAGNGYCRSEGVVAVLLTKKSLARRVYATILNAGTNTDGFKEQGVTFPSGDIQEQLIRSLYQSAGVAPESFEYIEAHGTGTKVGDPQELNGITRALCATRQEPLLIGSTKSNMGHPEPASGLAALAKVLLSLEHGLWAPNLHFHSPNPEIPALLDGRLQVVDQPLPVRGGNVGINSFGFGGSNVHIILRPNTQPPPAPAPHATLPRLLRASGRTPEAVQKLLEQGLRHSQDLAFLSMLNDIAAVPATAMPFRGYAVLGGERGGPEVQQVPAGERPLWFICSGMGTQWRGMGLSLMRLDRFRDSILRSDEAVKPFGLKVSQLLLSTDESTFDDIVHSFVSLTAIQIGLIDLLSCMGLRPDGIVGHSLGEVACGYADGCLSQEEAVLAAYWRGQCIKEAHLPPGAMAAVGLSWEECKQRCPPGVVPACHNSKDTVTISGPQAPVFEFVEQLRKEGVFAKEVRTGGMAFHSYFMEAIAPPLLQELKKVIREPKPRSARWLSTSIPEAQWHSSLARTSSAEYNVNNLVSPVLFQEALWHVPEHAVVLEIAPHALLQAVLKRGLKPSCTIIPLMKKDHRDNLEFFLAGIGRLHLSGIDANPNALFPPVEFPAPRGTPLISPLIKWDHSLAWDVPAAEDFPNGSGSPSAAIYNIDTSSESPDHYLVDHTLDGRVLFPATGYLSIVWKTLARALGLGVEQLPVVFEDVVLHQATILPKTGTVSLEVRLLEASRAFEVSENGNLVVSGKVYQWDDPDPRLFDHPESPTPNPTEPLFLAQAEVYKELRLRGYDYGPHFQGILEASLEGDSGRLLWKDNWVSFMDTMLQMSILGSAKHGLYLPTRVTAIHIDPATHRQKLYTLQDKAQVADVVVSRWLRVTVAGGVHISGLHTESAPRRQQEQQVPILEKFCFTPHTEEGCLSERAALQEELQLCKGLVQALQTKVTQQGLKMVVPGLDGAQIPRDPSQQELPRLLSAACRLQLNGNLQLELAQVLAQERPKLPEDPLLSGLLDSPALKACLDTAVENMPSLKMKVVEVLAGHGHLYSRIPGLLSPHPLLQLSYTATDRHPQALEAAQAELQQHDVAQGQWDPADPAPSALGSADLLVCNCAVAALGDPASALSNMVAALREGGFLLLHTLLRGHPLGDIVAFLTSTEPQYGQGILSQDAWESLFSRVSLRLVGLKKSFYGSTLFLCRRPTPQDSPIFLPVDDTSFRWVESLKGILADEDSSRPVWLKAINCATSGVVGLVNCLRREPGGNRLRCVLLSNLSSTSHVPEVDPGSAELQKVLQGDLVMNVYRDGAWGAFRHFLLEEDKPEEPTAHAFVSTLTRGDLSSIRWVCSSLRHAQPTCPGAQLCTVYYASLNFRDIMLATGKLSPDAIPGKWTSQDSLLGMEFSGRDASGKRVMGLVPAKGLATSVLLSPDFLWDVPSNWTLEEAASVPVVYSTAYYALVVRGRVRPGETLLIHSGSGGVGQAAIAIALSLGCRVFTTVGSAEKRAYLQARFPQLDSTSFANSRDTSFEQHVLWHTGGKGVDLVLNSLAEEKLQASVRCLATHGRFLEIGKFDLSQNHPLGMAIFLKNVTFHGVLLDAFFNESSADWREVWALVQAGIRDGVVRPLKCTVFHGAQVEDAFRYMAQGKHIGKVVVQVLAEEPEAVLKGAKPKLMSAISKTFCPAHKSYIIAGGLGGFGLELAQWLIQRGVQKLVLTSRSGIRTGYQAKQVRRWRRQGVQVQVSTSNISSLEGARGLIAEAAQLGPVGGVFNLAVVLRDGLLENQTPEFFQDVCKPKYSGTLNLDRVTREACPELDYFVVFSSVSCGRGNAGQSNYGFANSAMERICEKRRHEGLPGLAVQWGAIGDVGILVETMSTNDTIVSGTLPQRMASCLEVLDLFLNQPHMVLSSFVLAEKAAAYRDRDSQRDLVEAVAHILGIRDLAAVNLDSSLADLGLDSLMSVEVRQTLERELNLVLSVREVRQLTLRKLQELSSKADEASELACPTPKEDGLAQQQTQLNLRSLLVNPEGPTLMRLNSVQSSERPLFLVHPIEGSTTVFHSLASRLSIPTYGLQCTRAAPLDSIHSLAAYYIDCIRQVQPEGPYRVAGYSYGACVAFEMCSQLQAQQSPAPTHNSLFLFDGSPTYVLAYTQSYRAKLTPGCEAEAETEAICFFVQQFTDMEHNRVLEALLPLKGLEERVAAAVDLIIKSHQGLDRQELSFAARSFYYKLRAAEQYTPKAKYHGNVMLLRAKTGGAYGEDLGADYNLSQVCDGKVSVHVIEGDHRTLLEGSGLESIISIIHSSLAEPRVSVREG

**Q.** For `COC(=O)[C@@H]1[C@@H](C(=O)OC)C2(c3ccccc3-c3ccccc32)N(c2ccc(Cl)cc2)N1C#N`, which EC50 [1] is on record?
**A.** > 32 µM (inactive)

**Q.** What about the EC50 [2] of the same compound?
**A.** 8.22 µM (inconclusive)

**Q.** What about the IC50 [3] of the same compound?
**A.** 1.77 µM (active)

**Q.** Which AC50 [4] does the source give for `Nc1ccc2c(c1)C(=O)C(=O)c1ccccc1-2` here?
**A.** 0.273 µM (active)

**Q.** What about the IC50 [5] of the same compound?
**A.** 4.54 µM (active)

**Q.** And the EC50 [6]?
**A.** > 79.4 µM (not active)

**Q.** And the EC50 [7]?
**A.** 12.1 µM (not active)

**Q.** Which AC50 (ORF 73) does the source give for `COc1cc(-c2ccc(Nc3ccccc3C(=O)O)c(OC)c2)ccc1Nc1ccccc1C(=O)O` here?
**A.** 78.9 µM (active)

**Q.** What about the CC50 [8] of the same compound?
**A.** > 40 µM (active)

**Q.** And the IC50 (Fatty acid synthase)?
**A.** 6.68 µM (active)

**Q.** For `O=C(O)c1ccc(NC2=C/C(=N/S(=O)(=O)c3ccccc3)c3ccccc3C2=O)cc1`, which IC50 [9] is on record?
**A.** 0.967 µM (active)

**Q.** With `Cc1ccc2nc(/C(C#N)=C\c3ccc([N+](=O)[O-])o3)[nH]c2c1` as the compound, how does the AC50 [10] read?
**A.** < 0.195 µM (active)

**Q.** Which IC50 (HEK293 [11]) does the source give for `CCCC(=O)NC(c1ccccc1OC)c1ccc2cccnc2c1O` (stereo not drawn) here?
**A.** 12.5 µM (active)

**Q.** What about the EC50 [12] of the same compound?
**A.** 25.9 µM (active)

**Q.** And the IC50 (Jurkat)?
**A.** 3.82 µM (active)

**Q.** And the IC50 (HEK293 [13]; Homo sapiens, HEK293)?
**A.** 29.6 µM (inactive)

**Q.** And the IC50 (HEK293 [13]; hek293)?
**A.** 41.2 µM (inactive)

**Q.** What about the EC50 [14] of the same compound?
**A.** > 180 µM (inactive)

**Q.** What about the EC50 [15] of the same compound?
**A.** 28.7 µM (active)

**Q.** And the IC50 [16]?
**A.** 1.71 µM (active)

**Q.** And the EC50 [17]?
**A.** 0.476 µM (active)

**Q.** What about the EC50 (cells [18]) of the same compound?
**A.** 7.86 µM (active)

**Q.** And the EC50 (cells [19])?
**A.** > 350 µM (not active)
